Experimental data: the supplement of paper PMC10307832

Key:
Experiment in all cases: relative viability (nuclei count vs DMSO), 5 days (fraction); higher = more cells survive
[1] = compound: CS(=O)(=O)c1ccc(-c2cnc(N)c(C(=O)Nc3ccccc3)n2)cc1 [VE-821] + CC1(C)CCC(c2ccc(Cl)cc2)=C(CN2CCN(c3ccc(C(=O)NS(=O)(=O)c4ccc(N[C@H](CCN5CCOCC5)CSc5ccccc5)c(S(=O)(=O)C(F)(F)F)c4)cc3)CC2)C1 [Navitoclax] (partner 0.5 µM)
Summary of the method: (§1)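 After 5 days of treatment, lung cancer cells in 1536-well plates were fixed and stained in a single step (final 0.05% Triton X-100, 1% formaldehyde, 1 ug/ml Hoechst) and their nuclei counted on 4× images. Treatment had been applied by pin tool the day after seeding as one drug alone or as a fixed anchor-drug dose with five library-drug doses (not always all listed) in √10 steps. Relative viability is the nuclei count of treated wells divided by that of vehicle wells, and values are medians of duplicate plates.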

[2] = compound: CS(=O)(=O)c1ccc(-c2cnc(N)c(C(=O)Nc3ccccc3)n2)cc1 [VE-821] + CS(=O)(=O)CCNCc1ccc(-c2ccc3ncnc(Nc4ccc(OCc5cccc(F)c5)c(Cl)c4)c3c2)o1 [Lapatinib] (partner 2 µM)
Summary of the method: as §1

[3] = compound: CS(=O)(=O)c1ccc(C(=O)Nc2ccc(Cl)c(-c3ccccn3)c2)c(Cl)c1 [Vismodegib] + O=C(CCCCCCC(=O)Nc1ccccc1)NO [Vorinostat] (partner 1 µM)
Summary of the method: as §1

[4] = compound: N#CC[C@H](C1CCCC1)n1cc(-c2ncnc3[nH]ccc23)cn1 [Ruxolitinib] + Cc1nc(Nc2ncc(C(=O)Nc3c(C)cccc3Cl)s2)cc(N2CCN(CCO)CC2)n1 [Dasatinib] (partner 0.075 µM)
Summary of the method: as §1

Cell Line | relative viability ([1]; first compound 0.08 µM) | relative viability ([1]; first compound 0.253 µM) | relative viability ([1]; first compound 0.8 µM) | relative viability ([1]; first compound 2.53 µM) | relative viability ([1]; first compound 8 µM) | relative viability ([2]; first compound 0.08 µM) | relative viability ([2]; first compound 0.253 µM) | relative viability ([2]; first compound 0.8 µM) | relative viability ([2]; first compound 2.53 µM) | relative viability ([2]; first compound 8 µM) | relative viability ([3]; first compound 0.08 µM) | relative viability ([3]; first compound 0.253 µM) | relative viability ([3]; first compound 0.8 µM) | relative viability ([3]; first compound 2.53 µM) | relative viability ([3]; first compound 8 µM) | relative viability ([4]; first compound 0.08 µM) | relative viability ([4]; first compound 0.253 µM) | relative viability ([4]; first compound 0.8 µM) | relative viability ([4]; first compound 2.53 µM) | relative viability ([4]; first compound 8 µM)
NCI-H2126 | 0.897 | 0.821 | 0.833 | 0.815 | 0.699 | 0.741 | 0.713 | 0.747 | 0.677 | 0.6 | 0.704 | 0.744 | 0.695 | 0.72 | 0.663 | 0.599 | 0.526 | 0.715 | 0.616 | 0.453
NCI-H2170 | 0.598 | 0.561 | 0.512 | 0.554 | 0.323 | 0.289 | 0.278 | 0.256 | 0.272 | 0.272 | 0.83 | 0.712 | 0.824 | 0.815 | 0.838 | 0.691 | 0.681 | 0.627 | 0.599 | 0.483
NCI-H2228 | 0.943 | 1.01 | 0.811 | 0.842 | 0.741 | 1.18 | 1.23 | 1.14 | 1.04 | 0.37 | 1.03 | 0.719 | 0.589 | 0.751 | 0.574 | 0.399 | 0.457 | 0.484 | 0.401 | 0.198
NCI-H2347 | 0.941 | 0.809 | 0.775 | 0.959 | 0.763 | 1.02 | 1.05 | 0.664 | 1.03 | 1.14 | 0.553 | 0.616 | 0.519 | 0.711 | 0.507 | 0.295 | 0.341 | 0.297 | 0.29 | 0.333
NCI-H2405 | 0.873 | 0.888 | 0.762 | 0.942 | 0.751 | 1.15 | 0.976 | 1.03 | 1.31 | 1.05 | 0.958 | 0.85 | 1 | 1.02 | 1.06 |  | 0.192 | 0.214 | 0.189 | 0.218
NCI-H3122 | 1.07 | 1.02 | 1.01 | 1.02 | 0.922 | 1.06 | 1 | 0.926 | 1.03 | 1 | 0.986 | 0.994 | 0.994 | 1.09 | 0.992 | 0.852 | 0.725 | 0.932 | 0.634 | 0.286
PC-3 [JPC-3] | 0.837 | 0.801 | 0.859 | 0.789 | 0.744 | 0.512 | 0.474 | 0.461 | 0.482 | 0.424 | 0.858 | 0.548 | 0.802 | 0.924 | 0.896 | 0.684 | 1.06 | 0.989 | 0.872 | 0.883
PC-14 | 1.09 | 0.955 | 1.06 | 0.962 | 0.923 | 0.336 | 0.297 | 0.286 | 0.32 | 0.277 | 0.682 | 0.773 | 0.764 | 0.838 | 0.749 |  | 0.334 | 0.349 | 0.155 | 0.0674
RERF-LC-KJ | 0.94 | 0.824 | 0.881 | 0.671 | 0.651 | 0.92 | 0.756 | 0.798 | 0.772 | 0.715 | 0.669 | 0.603 | 0.78 | 0.772 | 0.659 | 0.886 | 0.742 | 0.942 | 0.737 | 0.635
SK-LU-1 | 0.781 | 0.871 | 0.744 | 0.366 | 0.247 | 0.907 | 0.668 | 0.625 | 0.582 | 0.525 | 0.718 | 0.827 | 0.784 | 0.718 | 0.842 | 0.206 | 0.166 | 0.166 | 0.135 | 0.164
SK-MES-1 | 1.3 | 1.23 | 1.24 | 1.21 | 1.26 | 0.483 | 0.467 | 0.437 | 0.446 | 0.397 | 1.11 | 0.981 | 1.07 | 0.973 | 1.06 | 0.313 | 0.372 | 0.315 | 0.199 | 0.285
SW 1573 | 1.12 | 0.992 | 1.03 | 0.796 | 1.1 | 1.12 | 1.07 | 1.12 | 0.58 | 0.989 | 0.77 | 0.564 | 0.895 | 0.636 | 0.679 | 0.742 | 0.459 | 0.72 | 0.357 | 0.237
